Experimental data as given in patent publication US10246453B2, “Benzenesulfonamide compounds and their use as therapeutic agents” (Xenon Pharmaceuticals Inc., priority 2016, dated 2019).
pIC50: −log10 of the molar value. Where a name gives a salt, the structure may show the parent alone.

Assays:
[1] = biological target: NaV1.1 (Homo sapiens (Human), UniProt P35498); assay: Sodium Influx Assay (Flux), NaV1.1; format: cell-based; settings: Trex HEK293 cells, ANG2 dye; arithmetic mean
[2] = biological target: NaV1.6 (Homo sapiens (Human), UniProt Q9UQD0); assay: Sodium Influx Assay (Flux), NaV1.6; settings: read-out: Flux NaV1.6 IC50; Trex HEK293 cells, ANG2 dye; arithmetic mean
[3] = biological target: NaV1.5 (Homo sapiens (Human), UniProt Q14524); assay: Sodium Influx Assay (Flux), NaV1.5; settings: read-out: Flux NaV1.5 IC50; Trex HEK293 cells, ANG2 dye; arithmetic mean
NaV1.5, sequence (Q14524 other isoform, or with tags, fused parts or gaps): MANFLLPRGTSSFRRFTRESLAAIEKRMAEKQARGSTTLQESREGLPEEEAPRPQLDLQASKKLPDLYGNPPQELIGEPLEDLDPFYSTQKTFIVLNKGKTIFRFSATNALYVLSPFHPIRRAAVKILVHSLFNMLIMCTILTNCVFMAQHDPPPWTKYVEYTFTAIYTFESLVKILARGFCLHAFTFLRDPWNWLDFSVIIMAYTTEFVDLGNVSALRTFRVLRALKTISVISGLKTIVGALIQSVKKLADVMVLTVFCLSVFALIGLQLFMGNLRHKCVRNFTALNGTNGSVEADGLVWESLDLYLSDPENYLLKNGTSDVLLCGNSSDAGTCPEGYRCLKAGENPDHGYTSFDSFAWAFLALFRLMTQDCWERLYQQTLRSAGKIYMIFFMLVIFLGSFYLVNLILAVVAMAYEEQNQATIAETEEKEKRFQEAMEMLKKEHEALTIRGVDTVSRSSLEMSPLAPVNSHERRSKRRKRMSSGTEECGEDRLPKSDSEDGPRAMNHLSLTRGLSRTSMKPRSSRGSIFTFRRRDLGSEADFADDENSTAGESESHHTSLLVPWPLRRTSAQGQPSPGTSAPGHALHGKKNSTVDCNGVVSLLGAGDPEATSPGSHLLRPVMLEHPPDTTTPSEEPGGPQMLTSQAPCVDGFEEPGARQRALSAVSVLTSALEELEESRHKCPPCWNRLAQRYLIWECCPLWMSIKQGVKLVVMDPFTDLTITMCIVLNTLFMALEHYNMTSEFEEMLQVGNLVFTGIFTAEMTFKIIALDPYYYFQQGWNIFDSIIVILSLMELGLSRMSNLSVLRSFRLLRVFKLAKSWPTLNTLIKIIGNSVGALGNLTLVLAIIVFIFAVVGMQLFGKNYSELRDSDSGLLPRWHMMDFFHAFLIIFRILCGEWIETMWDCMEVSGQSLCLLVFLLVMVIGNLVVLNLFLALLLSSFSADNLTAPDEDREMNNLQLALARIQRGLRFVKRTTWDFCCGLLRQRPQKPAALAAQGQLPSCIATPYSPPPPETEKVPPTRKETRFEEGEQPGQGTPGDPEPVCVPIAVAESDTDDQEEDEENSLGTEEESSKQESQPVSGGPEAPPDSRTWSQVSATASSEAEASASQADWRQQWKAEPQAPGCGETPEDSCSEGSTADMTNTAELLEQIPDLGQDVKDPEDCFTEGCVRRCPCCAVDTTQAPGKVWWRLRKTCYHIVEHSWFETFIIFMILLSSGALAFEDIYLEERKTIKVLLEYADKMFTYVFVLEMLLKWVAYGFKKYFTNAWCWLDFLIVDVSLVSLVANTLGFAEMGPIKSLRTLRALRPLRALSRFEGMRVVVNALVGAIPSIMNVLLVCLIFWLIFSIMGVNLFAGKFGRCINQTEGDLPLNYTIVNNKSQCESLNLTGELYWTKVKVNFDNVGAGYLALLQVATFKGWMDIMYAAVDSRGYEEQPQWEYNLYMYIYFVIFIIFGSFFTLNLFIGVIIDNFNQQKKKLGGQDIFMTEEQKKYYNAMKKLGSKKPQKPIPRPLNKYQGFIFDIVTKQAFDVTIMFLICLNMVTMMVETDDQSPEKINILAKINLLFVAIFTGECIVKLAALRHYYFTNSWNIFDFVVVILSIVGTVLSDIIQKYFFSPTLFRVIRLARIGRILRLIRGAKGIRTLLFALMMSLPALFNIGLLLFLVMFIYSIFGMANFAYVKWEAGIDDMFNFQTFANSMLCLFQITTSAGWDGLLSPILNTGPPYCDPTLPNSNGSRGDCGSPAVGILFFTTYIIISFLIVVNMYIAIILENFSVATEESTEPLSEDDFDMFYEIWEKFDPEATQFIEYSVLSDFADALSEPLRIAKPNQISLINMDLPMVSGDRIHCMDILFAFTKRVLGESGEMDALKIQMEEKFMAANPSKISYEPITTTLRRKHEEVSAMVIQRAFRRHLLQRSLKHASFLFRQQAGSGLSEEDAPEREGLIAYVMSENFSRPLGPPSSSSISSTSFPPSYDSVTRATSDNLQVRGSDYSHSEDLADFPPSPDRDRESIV

## O=S(=O)(Nc1nccs1)c1ccc(OC2CCN(C3CCc4ccccc43)CC2)c(Cl)c1 (stereo not drawn) [Example 49, 3-chloro-4-((1-(2,3-dihydro-1H-inden-1-yl)piperidin-4-yl)oxy)-N-(thiazol-2-yl)benzenesulfonamide 2,2,2-trifluoroacetate]
[1]
  pIC50: 5.25
[2]
  pIC50: 6.31
[3]
  pIC50: 5.27

## O=S(=O)(Nc1nccs1)c1ccc(NC2CN(Cc3ccccc3)C2)c(Cl)c1 [Example 50, 4-((1-benzylazetidin-3-yl)amino)-3-chloro-N-(thiazol-2-yl)benzenesulfonamide 2,2,2-trifluoroacetate]
[1]
  pIC50: 5.38
[2]
  pIC50: 5.97
[3]
  pIC50: 5.24

## O=S(=O)(Nc1nccs1)c1ccc(OC2CCN(Cc3ccc4ccccc4c3)CC2)c(Cl)c1 [Example 51, 3-chloro-4-((1-(naphthalen-2-ylmethyl)piperidin-4-yl)oxy)-N-(thiazol-2-yl)benzenesulfonamide 2,2,2-trifluoroacetate]
[1]
  pIC50: 4.75
[2]
  pIC50: 5.18
[3]
  pIC50: 5.46

## CC(c1ccccc1)N1CCC(Oc2cc(F)c(S(=O)(=O)Nc3nccs3)cc2Cl)CC1 (stereo not drawn) [Example 54, 5-chloro-2-fluoro-4-((1-(1-phenylethyl)piperidin-4-yl)oxy)-N-(thiazol-2-yl)benzenesulfonamide]
[1]
  pIC50: 5.00
[2]
  pIC50: 6.81
[3]
  pIC50: 4.78

## C[C@H](c1ccccc1)N1CCC(Oc2cc(F)c(S(=O)(=O)Nc3nccs3)cc2Cl)CC1 [Example 56, (R)-5-chloro-2-fluoro-4-((1-(1-phenylethyl)piperidin-4-yl)oxy)-N-(thiazol-2-yl)benzenesulfonamide 2,2,2-trifluoroacetate]
[1]
  pIC50: 4.90
[2]
  pIC50: 6.41
[3]
  pIC50: 5.00

## CC(C)(c1ccccc1)N1CCC(Oc2cc(F)c(S(=O)(=O)Nc3nccs3)cc2Cl)CC1 [Example 60, 5-chloro-2-fluoro-4-((1-(2-phenylpropan-2-yl)piperidin-4-yl)oxy)-N-(thiazol-2-yl)benzenesulfonamide 2,2,2-trifluoroacetate]
[1]
  pIC50: 4.88
[2]
  pIC50: 6.34
[3]
  pIC50: 4.80

## O=S(=O)(Nc1nccs1)c1ccc(OC2CCN(Cc3ccncc3)CC2)c(Cl)c1 [Example 63, 3-chloro-4-((1-(pyridin-4-ylmethyl)piperidin-4-yl)oxy)-N-(thiazol-2-yl)benzenesulfonamide]
[1]
  pIC50: < 4.52
[2]
  pIC50: 4.56
[3]
  pIC50: < 4.52

## O=S(=O)(Nc1nccs1)c1ccc(OC2CCN(Cc3cccnc3)CC2)c(Cl)c1 [Example 64, 3-chloro-4-((1-(pyridin-3-ylmethyl)piperidin-4-yl)oxy)-N-(thiazol-2-yl)benzenesulfonamide]
[1]
  pIC50: < 4.52
[2]
  pIC50: 5.25
[3]
  pIC50: < 4.52

## O=S(=O)(Nc1nccs1)c1ccc(N[C@@H]2CCN(Cc3cccc(Cl)c3)C2)c(Cl)c1 [Example 69, (R)-3-chloro-4-((1-(3-chlorobenzyl)pyrrolidin-3-yl)amino)-N-(thiazol-2-yl)benzenesulfonamide]
[1]
  pIC50: 5.75
[2]
  pIC50: 6.16
[3]
  pIC50: 5.21

## Cc1cccc(CN2CC[C@@H](Nc3ccc(S(=O)(=O)Nc4nccs4)cc3Cl)C2)c1 [Example 70, (R)-3-chloro-4-((1-(3-methylbenzyl)pyrrolidin-3-yl)amino)-N-(thiazol-2-yl)benzenesulfonamide]
[1]
  pIC50: 5.50
[2]
  pIC50: 6.18
[3]
  pIC50: 5.38

## O=S(=O)(Nc1nccs1)c1ccc(OC2CN(Cc3ccccc3)C2)c(Cl)c1 [Example 76, 4-((1-benzylazetidin-3-yl)oxy)-3-chloro-N-(thiazol-2-yl)benzenesulfonamide]
[1]
  pIC50: 4.94
[2]
  pIC50: 5.33
[3]
  pIC50: 4.78

## O=S(=O)(Nc1cccc(F)n1)c1cc(Cl)c(OC2CCN(Cc3ccccc3)CC2)cc1F [Example 78, 4-((1-benzylpiperidin-4-yl)oxy)-5-chloro-2-fluoro-N-(6-fluoropyridin-2-yl)benzenesulfonamide 2,2,2-trifluoroacetate]
[1]
  pIC50: 5.09
[2]
  pIC50: 5.18
[3]
  pIC50: 5.54

## O=S(=O)(Nc1nccs1)c1ccc(OC2CCN(Cc3cccc(F)c3)CC2)c(Cl)c1 [Example 81, 3-chloro-4-(1-(3-fluorobenzyl)piperidin-4-yloxy)-N-(thiazol-2-yl)benzenesulfonamide]
[1]
  pIC50: 5.13
[2]
  pIC50: 6.24
[3]
  pIC50: 5.14

## COc1cccc(CN2CCC(Oc3ccc(S(=O)(=O)Nc4nccs4)cc3Cl)CC2)c1 [Example 84, 3-chloro-4-(1-(3-methoxybenzyl)piperidin-4-yloxy)-N-(thiazol-2-yl)benzenesulfonamide]
[1]
  pIC50: 5.22
[2]
  pIC50: 6.28
[3]
  pIC50: 5.45

## O=S(=O)(Nc1nccs1)c1ccc(OC2CCN(Cc3cccc(Cl)c3)CC2)c(Cl)c1 [Example 85, 3-chloro-4-(1-(3-chlorobenzyl)piperidin-4-yloxy)-N-(thiazol-2-yl)benzenesulfonamide]
[1]
  pIC50: 5.06
[2]
  pIC50: 6.45
[3]
  pIC50: 5.24

## Cc1cccc(CN2CC[C@H](Nc3cc(F)c(S(=O)(=O)Nc4nccs4)cc3Cl)C2)c1 [Example 86, (S)-5-chloro-2-fluoro-4-(1-(3-methylbenzyl)pyrrolidin-3-ylamino)-N-(thiazol-2-yl)benzenesulfonamide]
[1]
  pIC50: 5.27
[2]
  pIC50: 6.23
[3]
  pIC50: 4.90

## O=S(=O)(Nc1nccs1)c1ccc(OC2CCN(Cc3ccccc3F)CC2)c(Cl)c1 [Example 90, 3-chloro-4-(1-(2-fluorobenzyl)piperidin-4-yloxy)-N-(thiazol-2-yl)benzenesulfonamide]
[1]
  pIC50: 4.91
[2]
  pIC50: 6.33
[3]
  pIC50: 5.09

## Cc1ccccc1CN1CCC(Oc2ccc(S(=O)(=O)Nc3nccs3)cc2Cl)CC1 [Example 91, 3-chloro-4-(1-(2-methylbenzyl)piperidin-4-yloxy)-N-(thiazol-2-yl)benzenesulfonamide]
[1]
  pIC50: 5.14
[2]
  pIC50: 5.92
[3]
  pIC50: 5.16

## Cc1ccc(CN2CCC(Oc3ccc(S(=O)(=O)Nc4nccs4)cc3Cl)CC2)cc1C [Example 93, 3-chloro-4-(1-(3,4-dimethylbenzyl)piperidin-4-yloxy)-N-(thiazol-2-yl)benzenesulfonamide]
[1]
  pIC50: 4.90
[2]
  pIC50: 5.44
[3]
  pIC50: 4.90

## Cc1cc(C)cc(CN2CCC(Oc3ccc(S(=O)(=O)Nc4nccs4)cc3Cl)CC2)c1 [Example 94, 3-chloro-4-(1-(3,5-dimethylbenzyl)piperidin-4-yloxy)-N-(thiazol-2-yl)benzenesulfonamide]
[1]
  pIC50: 4.94
[2]
  pIC50: 5.46
[3]
  pIC50: 5.12

## O=S(=O)(Nc1ncns1)c1ccc(O[C@@H]2CCN(Cc3ccccc3)C2)c(Cl)c1 [Example 96, (R)-4-(1-benzylpyrrolidin-3-yloxy)-3-chloro-N-(1,2,4-thiadiazol-5-yl)benzenesulfonamide 2,2,2-trifluoroacetate]
[1]
  pIC50: 4.59
[2]
  pIC50: 4.92
[3]
  pIC50: < 4.52

## Cc1cc(C)cc(CN2CC[C@@H](Oc3ccc(S(=O)(=O)Nc4ncns4)cc3Cl)C2)c1 [Example 98, (R)-3-chloro-4-(1-(3,5-dimethylbenzyl)pyrrolidin-3-yloxy)-N-(1,2,4-thiadiazol-5-yl)benzenesulfonamide 2,2,2-trifluoroacetate]
[1]
  pIC50: 4.66
[2]
  pIC50: 5.12
[3]
  pIC50: < 4.52

## Cc1cc(S(=O)(=O)Nc2cscn2)c(F)cc1N(C)[C@H]1CCN(Cc2csc(C(C)C)n2)C1 [Example 107, (S)-2-fluoro-4-((1-((2-isopropylthiazol-4-yl)methyl)pyrrolidin-3-yl)(methyl)amino)-5-methyl-N-(thiazol-4-yl)benzenesulfonamide 2,2,2-trifluoroacetate]
[1]
  pIC50: 5.39
[2]
  pIC50: 7.31
[3]
  pIC50: 5.02

## Cc1cc(S(=O)(=O)Nc2cscn2)c(F)cc1N(C)[C@H]1CCN(Cc2ccnn2CC(F)(F)F)C1 [Example 108, (S)-2-fluoro-5-methyl-4-(methyl(1-((1-(2,2,2-trifluoroethyl)-1H-pyrazol-5-yl)methyl)pyrrolidin-3-yl)amino)-N-(thiazol-4-yl)benzenesulfonamide]
[1]
  pIC50: 4.90
[2]
  pIC50: 5.26
[3]
  pIC50: < 4.52

## Cc1cc(S(=O)(=O)Nc2cscn2)c(F)cc1N(C)[C@H]1CCN([C@H]2C[C@@H](c3ccccc3)C2)C1 [Example 109, 2-fluoro-5-methyl-4-(methyl((S)-1-((1s,3R)-3-phenylcyclobutyl)-pyrrolidin-3-yl)amino)-N-(thiazol-4-yl)benzenesulfonamide formate]
[1]
  pIC50: 5.70
[2]
  pIC50: 5.95
[3]
  pIC50: 5.55

## Cc1nc(CN2CC[C@H](N(C)c3cc(F)c(S(=O)(=O)Nc4cscn4)cc3C)C2)cs1 [Example 110, (S)-2-fluoro-5-methyl-4-(methyl(1-((2-methylthiazol-4-yl)methyl)pyrrolidin-3-yl)amino)-N-(thiazol-4-yl)benzenesulfonamide formate]
[1]
  pIC50: < 4.52
[2]
  pIC50: 6.58
[3]
  pIC50: < 4.52

## Cc1cc(S(=O)(=O)Nc2cscn2)c(F)cc1N(C)[C@H]1CCN(Cc2ccn(C)n2)C1 [Example 111, (S)-2-fluoro-5-methyl-4-(methyl(1-((1-methyl-1H-pyrazol-3-yl)methyl)pyrrolidin-3-yl)amino)-N-(thiazol-4-yl)benzenesulfonamide formate]
[1]
  pIC50: < 4.52
[2]
  pIC50: 6.12
[3]
  pIC50: < 4.52

## Cc1cc(S(=O)(=O)Nc2cscn2)c(F)cc1N(C)[C@H]1CCN(Cc2ccccc2C(F)F)C1 [Example 112, (S)-4-((1-(2-(difluoromethyl)benzyl)-pyrrolidin-3-yl)(methyl)amino)-2-fluoro-5-methyl-N-(thiazol-4-yl)benzenesulfonamide]
[1]
  pIC50: 5.34
[2]
  pIC50: 6.11
[3]
  pIC50: 5.09

## Cc1cc(S(=O)(=O)Nc2cscn2)c(F)cc1N(C)[C@H]1CCN(Cc2cccc(O)c2)C1 [Example 114, (S)-2-fluoro-4-((1-(3-hydroxybenzyl)-pyrrolidin-3-yl)(methyl)amino)-5-methyl-N-(thiazol-4-yl)benzenesulfonamide]
[1]
  pIC50: 4.59
[2]
  pIC50: 5.65
[3]
  pIC50: < 4.52
